Where two headings read alike, the source gives them in different places.

One may read the Kd as a measure of binding affinity in units of concentration. The term CC50 denotes the concentration that lowers cell viability or growth by half. One may read the EC50 as the concentration at which the effect is half-maximal.

Series [1] addresses K65R mutant RT of HIV-1 (Human immunodeficiency virus type 1 group M subtype B, UniProt P04585, K652R). Nature of the series: biochemical. It is filed as biochemical. To be noted: for Selectivity = (kpol/Kd) natural nucleotide/(kpol/Kd) nucleotide analogue: versus dATP.
Series [2] concerns K65R mutant RT of HIV-1. The experiment in a line: biochemical. It is filed as biochemical.
A further series addresses wild-type RT of HIV-1 (Human immunodeficiency virus type 1 group M subtype B, UniProt P04585). Nature of the series: biochemical. To be noted: for Selectivity = (kpol/Kd) natural nucleotide/(kpol/Kd) nucleotide analogue (discrimination): versus dATP. It is filed as biochemical.
The nature of series [3]: Cytostatic effect on parent hepatoma cell line HepG2 (MTS method). To be noted: human.
The nature of series [4]: Cytotoxicity by MTT test in cultures of uninfected CMSP. To be noted: human. In general terms: Tetrazolium dyes change colour on reduction, which living cells bring about.
The subject of a further series is HIV-1-LAI. The experiment in a line: Anti-HIV test in CMSP cultures infected by HIV-1-LAI (RT activity in supernatants). The series is classed as cell-based. The note with it: for IT (selectivity index, TC50/EC50): HIV-1 (LAI), CMSP; for EC50: Human immunodeficiency virus 1, 168 h, read-out: EC50 (μM) HIV-1 (LAI).
For series [5], the system named is HBV. Nature of the series: Anti-HBV test in infected HepAD38 cells (intracellular viral DNA by Q-PCR). It is filed as cell-based. To be noted: for SI selectivity index (TC50/EC50): HBV, HepAD38 cells; for EC50: Hepatitis B virus, 144 h, infected HepAD38 cells, 50% reduction of viral DNA, day 6 post-induction. The procedure:
These are hepatoma cells that have been stably transfected with a cDNA copy of the pregenomic RNA of wild-type virus. Withdrawal of tetracycline from the culture medium results in the initiation of viral replication. This offers the advantage, in contrast to the Hep G2.2.15 cell lines commonly used, that there is no, or very limited background viral DNA synthesis. Cells were cultured at 37° C. in a humidified 5% CO2/air atmosphere in seeding medium, DMEM/Ham's F12 (50/50) supplemented with 10% (v/v) heat-inactivated fetal calf serum, 100 IU/ml penicillin, 50 μg/ml streptomycin, 100 Ξg/ml kanamycin, 400 μg/ml G418, and 0.3 μg/ml tetracycline. […] After 2-3 days the cultures were induced for viral production by washing with prewarmed PBS and were fed with […] assay medium (seeding medium without tetracycline and G418) with or without the antiviral compounds. Medium was changed after 3 days. The antiviral effect was quantified by measuring levels of intracellular viral DNA at day 6 post-induction, by a real time quantitative PCR (Q-PCR) method. Total cellular DNA was extracted from the cells by means of a commercial kit. […] The reaction was analyzed using a SDS 7000. A plasmid containing the full length insert of the HBV genome was used to prepare the standard curve. The amount of viral DNA produced in treated cultures was expressed as a percentage of the mock treated samples. […] The cytostatic effect of the various compounds was assessed employing the parent hepatoma cell line HepG2. The effect of the compounds on exponentially growing HepG2 cells was evaluated by means of the MTS method. Briefly, cells were seeded at a density of 3000/well (96 well plate) and were allowed to proliferate for 3 days in the absence or presence of compounds after which the optical density was measured with a 96-well plate reader and cell density was determined.

Series [6] deals with HBV. Nature of the series: Anti-HBV test in infected Huh7 cells. The series is classed as cell-based. To be noted: Hepatitis B virus.
Setting [7] is: affinities of the RT for the analogues (Kd), wild-type RT, unit inferred.

In the case of `Nc1ncnc2c1ncn2CCOCP(O)(=S)OP(=O)(O)OP(=O)(O)O` (stereo not shown) [Compound 12, 9-[2-(diphosphorylthiophosphonomethoxy)ethyl]adenine], at K65R mutant RT of HIV-1 [1], binding was put at a Kd of 0.7 µM. In addition, at K65R mutant RT of HIV-1 [1] (K65R mutant RT), the “kpol” value is 0.03 s⁻¹ and the kpol/Kd was found to be 0.04. The “reduction in the incorporation velocity of the nucleotide (factor)” value (“reduction in the incorporation velocity” below) in the series on K65R mutant RT of HIV-1 [2] is given as 18. The molecule also yielded a Kd on wild-type RT of HIV-1 (setting [7]) of 1.2 µM. Further, at wild-type RT of HIV-1 (wild-type RT), the “incorporation velocity, times lower than that of natural nucleotide dATP” value is 90 times; the “kpol” value came out at 0.55 s⁻¹; the kpol/Kd is 0.5; the “Selectivity = (kpol/Kd) natural nucleotide/(kpol/Kd) nucleotide analogue (discrimination)” value worked out at 14.5.
In the case of `C[C@@H](Cn1cnc2c(N)ncnc21)OCP(=O)(O)OP(=O)(O)OP(=O)(O)O` [PMPApp, PMPA diphosphate], on K65R mutant RT of HIV-1 [1] (K65R mutant RT), binding was characterised by a dissociation constant (Kd) of 18 µM, the “kpol” value turned out to be 0.32 s⁻¹, the kpol/Kd was found to be 0.017 and the “Selectivity = (kpol/Kd) natural nucleotide/(kpol/Kd) nucleotide analogue” value amounted to 99.4. Moreover, in the series with K65R mutant RT of HIV-1 [2], the “reduction in the incorporation velocity” value amounted to 22. Further, on wild-type RT of HIV-1 (wild-type RT), the “kpol” value stood at 7 s⁻¹, the kpol/Kd stood at 0.3 and the “Selectivity = (kpol/Kd) natural nucleotide/(kpol/Kd) nucleotide analogue (discrimination)” value came to 22.3. The “Selectivity = (kpol/Kd) natural nucleotide/(kpol/Kd) nucleotide analogue (discrimination)” value at wild-type RT of HIV-1 (wild-type RT, listed as PMPADP) is recorded as 22. For the same molecule, on wild-type RT of HIV-1 (wild-type RT, read-out: Kd), the Kd came to 23 µM.
As for `Nc1ncnc2c1ncn2CCOCP(=O)(O)OP(=O)(O)OP(=O)(O)O` [PMEApp, PMEA diphosphate], on K65R mutant RT of HIV-1 [1] (K65R mutant RT), binding was put at a Kd of 7.7 µM, the “kpol” value is 0.75 s⁻¹, the kpol/Kd is reported as 0.1 and the “Selectivity = (kpol/Kd) natural nucleotide/(kpol/Kd) nucleotide analogue” value turned out to be 16.9. The “reduction in the incorporation velocity” value in the series with K65R mutant RT of HIV-1 [2] is reported as 9. Further, at wild-type RT of HIV-1 (wild-type RT), the “kpol” value worked out at 6.8 s⁻¹, the kpol/Kd is reported as 0.86 and the “Selectivity = (kpol/Kd) natural nucleotide/(kpol/Kd) nucleotide analogue (discrimination)” value worked out at 7.8. The Kd at wild-type RT of HIV-1 (wild-type RT, read-out: Kd) was determined as 7.9 µM.
For the molecule `CC(Cn1cnc2c(N)ncnc21)OCP(=O)(O)O` (stereo not shown) [PMPA, 9-(2-(phosphonomethoxy)propyl)adenine], the CC50 at 3 days in series [3] (exponentially growing HepG2 cells) is over 35 µM. In series [4], this molecule returned a CC50 at 7 days of over 100 µM. In the series on HIV-1-LAI, the “IT (selectivity index, TC50/EC50)” value was over 77 and the EC50 was 1.3 µM. For the same molecule, in the series with HBV [5], the “SI selectivity index (TC50/EC50)” value was over 12 and the midpoint of the response, the EC50, lay at 2.88 µM. Besides, the EC50 with HBV [6] (Huh-7, read-out: EC50 (μM) HBV) is 4 µM.
As to `Nc1ncnc2c1ncn2[C@H]1C[C@H](O)[C@@H](COP(=O)(O)OP(=O)(O)OP(=O)(O)O)O1` [dATP], the Kd on K65R mutant RT of HIV-1 [1] (K65R mutant RT) amounted to 6.89 µM; on wild-type RT of HIV-1 (wild-type RT, read-out: Kd) it was 7.47 µM; at wild-type RT of HIV-1 (wild-type RT, unit inferred, read-out: affinities of the RT for the analogues (Kd)), 7.5 µM. The “kpol” value on K65R mutant RT of HIV-1 [1] (K65R mutant RT) came to 11.63 s⁻¹; on wild-type RT of HIV-1 (wild-type RT) it was 50.16 s⁻¹. Moreover, the figures for the kpol/Kd on K65R mutant RT of HIV-1 [1] (K65R mutant RT) and at wild-type RT of HIV-1 (wild-type RT) were 1.69 and 6.71, respectively.
Regarding `Nc1ncnc2c1ncn2CCOCP(=O)(O)O` [PMEA, 9-(2-(phosphonomethoxy)ethyl)adenine], the CC50 at 3 days in series [3] is over 200 µM. Besides, the CC50 at 7 days in series [4] was over 19 µM. Moreover, the “IT (selectivity index, TC50/EC50)” value with HIV-1-LAI is on record as over 5. In addition, the EC50 was determined as 1.9 µM in the series with HIV-1-LAI (CMSP cultures, 7 days, RT activity in supernatants); 8.8 µM in the series on HBV [5]; 6 µM in the series with HBV [6] (Huh-7, infected Huh7 cells, 50% reduction of viral DNA, read-out: EC50 (μM) HBV). For the same molecule, the “SI selectivity index (TC50/EC50)” value with HBV [5] was over 23.
Turning to `C[C@H](Cn1cnc2c(N)ncnc21)OCP(O)(=S)OP(=O)(O)OP(=O)(O)O` (stereo partly drawn) [Compound 13, (R)-9-[2-(pyrophosphoroxythiophosphonomethoxy)propyl]adenine], the Kd on K65R mutant RT of HIV-1 [1] was 2.7 µM; at wild-type RT of HIV-1 (Kd (μM), wild-type RT), 5.2 µM; at wild-type RT of HIV-1 (setting [7]) it was 5.5 µM. For the same molecule, the “kpol” value came to 0.077 s⁻¹ on K65R mutant RT of HIV-1 [1] (K65R mutant RT) and 0.58 s⁻¹ on wild-type RT of HIV-1. Besides, the results for the kpol/Kd on K65R mutant RT of HIV-1 [1] (K65R mutant RT) and on wild-type RT of HIV-1 were 0.03 and 0.11, respectively. The “incorporation velocity, times lower than that of natural nucleotide dATP” value at wild-type RT of HIV-1 is listed as 90 times. For the same molecule, the “Selectivity = (kpol/Kd) natural nucleotide/(kpol/Kd) nucleotide analogue (discrimination)” value on wild-type RT of HIV-1 (wild-type RT) stood at 59.8.

The record behind these values is US8884011B2, “Nucleotide analogues as precursor molecules for antivirals” (Centre National de la Recherche Scientifique-CNRS, priority 2006, dated 2014).
